Experimental data reported in patent US4946852A, “4(R)-substituted 6(S)-phenoxymethyl-, 6(S)-β-phenylethyl- and 6(S)-β-styryl-tetrahydropyran-2-ones, a highly stereoselective process for their preparation, pharmaceutical products based on these compounds, and their use” (Hoechst Aktiengesellschaft, priority 1986, dated 1990).

Target: T1, HMG-CoA reductase (Rattus norvegicus, UniProt P51639)
T1 sequence (P51639 1-887): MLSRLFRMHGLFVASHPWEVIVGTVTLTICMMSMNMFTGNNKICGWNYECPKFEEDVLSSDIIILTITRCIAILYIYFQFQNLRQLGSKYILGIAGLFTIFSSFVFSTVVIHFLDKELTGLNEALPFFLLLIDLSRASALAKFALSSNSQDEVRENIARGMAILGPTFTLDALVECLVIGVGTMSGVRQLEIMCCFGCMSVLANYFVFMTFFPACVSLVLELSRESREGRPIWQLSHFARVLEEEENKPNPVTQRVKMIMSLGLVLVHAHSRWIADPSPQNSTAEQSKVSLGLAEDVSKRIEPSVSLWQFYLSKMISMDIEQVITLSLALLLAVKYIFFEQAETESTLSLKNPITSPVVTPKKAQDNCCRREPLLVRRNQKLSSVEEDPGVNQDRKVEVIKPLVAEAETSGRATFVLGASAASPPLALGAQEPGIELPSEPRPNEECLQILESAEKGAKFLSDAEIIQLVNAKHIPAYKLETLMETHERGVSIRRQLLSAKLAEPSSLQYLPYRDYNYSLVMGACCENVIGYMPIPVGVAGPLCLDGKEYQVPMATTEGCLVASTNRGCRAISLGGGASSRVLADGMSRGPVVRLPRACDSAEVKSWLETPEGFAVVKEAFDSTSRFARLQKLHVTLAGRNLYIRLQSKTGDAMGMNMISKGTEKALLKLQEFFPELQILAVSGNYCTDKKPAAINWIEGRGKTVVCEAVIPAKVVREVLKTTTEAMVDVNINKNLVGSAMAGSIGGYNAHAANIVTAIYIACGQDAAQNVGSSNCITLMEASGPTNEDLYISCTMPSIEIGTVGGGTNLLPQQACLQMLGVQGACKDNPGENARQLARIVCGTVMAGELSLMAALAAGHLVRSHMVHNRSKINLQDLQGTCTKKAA
Assay: Inhibition of HMG-CoA reductase activity on solubilized enzyme preparations from rat liver microsomes
Assay type: biochemical
Conditions: solubilized rat-liver microsomal enzyme; for IC50: molar concentration required for 50% inhibition, (S,R) 14C-HMG-CoA substrate, mean of 3 parallel samples

Row | SMILES | IC50 [nM] | inhibition (at 10^-6) [%] | inhibition (at 10^-7) [%]
1 | Cc1cc(C)c(OC[C@@H]2C[C@@H](O)CC(=O)O2)c(CCCOc2ccc(F)cc2)c1 [A, 6(S)-{4,6-dimethyl-2-[3-(4-fluorophenoxy)propyl]phenoxymethyl}-3,4,5,6-tetrahydro-4(R)-hydroxy-2H-pyran-2-one, reference compound] | 1000 | – | –
2 | CC(=O)S[C@H]1CC(=O)O[C@H](COc2c(C)cc(C)cc2CCCOc2ccc(F)cc2)C1 [Va, 6S-({[2-(4-Fluorophenoxy-3-propyl)]-4,6-dimethylphenoxy}methyl)-4R-acetylmercapto-3,4,5,6-tetrahydro-2H-pyran-2-one] | 300 | – | –
3 | Cc1cc(C)c(OC[C@@H]2C[C@@H](SCc3ccccc3)CC(=O)O2)c(CCCOc2ccc(F)cc2)c1 [Vc, 6S-({[2-(4-Fluorophenoxy-3-propyl)]-4,6-dimethylphenoxy}methyl)-4R-benzylmercapto-3,4,5,6-tetrahydro-2H-pyran-2-one] | ~100000 | – | –
4 | Cc1cc(C)c(OC[C@@H]2C[C@@H](SCCO)CC(=O)O2)c(CCCOc2ccc(F)cc2)c1 [Vd, 6S-({[2-(4-Fluorophenoxy-3-propyl)]-4,6-dimethylphenoxy}methyl)-4R-β-hydroxyethylmercapto-3,4,5,6-tetrahydro-2H-pyran-2-one] | 1000 | – | –
5 | Cc1cc(C)c(OC[C@@H]2C[C@@H](SC[C@H](N)C(=O)O)CC(=O)O2)c(CCCOc2ccc(F)cc2)c1 [Ve, 6S-({[2-(4-Fluorophenoxy-3-propyl)]-4,6-dimethylphenoxy}methyl)-4R-[(R)-2-amino-3-mercaptyl-propionic acid]-3,4,5,6-tetrahydro-2H-pyran-2-one] | – | 37 | 24
6 | Cc1cc(C)c(OC[C@@H](O)C[C@@H](O)CC(=O)O)c(CCCOc2ccc(F)cc2)c1 [reference compound] | 200 | – | –
